Experiments:
[1] = tested on: bacteria, yeast and fungal; gastrointestinal pathogens; experiment: In vitro tests and field trials of cimenol ring against gastrointestinal pathogens
Description: In vitro tests and field trials indicate that cimenol ring is effective against bacteria, yeast and fungal; gastrointestinal pathogens whose mechanisms of action are: […]

yeasts and fungi = experiment: Kill of yeasts and fungi on contact with cimenol ring; assay type: cell-based; conditions: appropriate concentrations, 10 minutes of contact
Method: On yeasts and fungi, appropriate concentrations of cimenol ring achieves to kill 100% of microorganisms in just 10 minutes of contact. Cell lysis and release of cellular contents into the medium are observed. At electronic microscope, yeasts and fungi are malformed and have fractures in cell walls, especially those found in the proliferation phase.

cimenol [cimenol ring] was tested, and the “effectiveness against bacteria, yeast and fungal gastrointestinal pathogens” value [1] was “effective” and the kill of microorganisms (yeasts and fungi) was 100%.

Source: patent publication US10111449B2, “Production procedure for a functional feed based in ellagic acid, cimenol and alliin from vegetable extracts to be used as pronutrient in animal feed” (BIOVET, S.A., priority 2015, dated 2018)
